Where two headings read alike, the source gives them in different places.
How the values were obtained:
[1] = system: NCI-H358 tumor cell xenograft; assay: Growth inhibition of xenograft in nude mice; type: in vivo; conditions: 10 mg/kg, orally, once daily, for 21 consecutive days
Text: (§1) Experimental method: 1) Culturing MV 4-11/KYSE520/NCI-H358 cells in a culture medium containing 10% fetal bovine serum. Harvesting tumor cells at an exponential growth phase, and resuspending in PBS to suitable concentrations for subcutaneous tumor inoculation in nude mice. 2) Subcutaneously inoculating 2-8×10^7 tumor cells at the right back of a mouse, and resuspending the cells in PBS and matrigel (1:1); observing tumor growth regularly, and randomizing mice for administration based on tumor size and mouse body weight when tumors grow to a mean volume of ˜120 mm^3-[…]. 3) Defining the day of tumor cell inoculation as Day 0. Prior to the start of dosing, weighing all animals and measuring the tumor volume with a vernier caliper. 3) Administering orally compound of examples (prepared with water for injection containing 1% Tween80 to a desired concentration for use) at a given dose for three consecutive weeks, and giving an equal amount of solvent animals in a solvent control group. Measuring diameters of the xenograft twice a week throughout the experiment, and weighing the mice were at the same time.
(§2) The calculation formula of tumor volume (TV) is: TV=½×a×b^2, wherein a and b represent length and width, respectively. The relative tumor volume (RTV) is calculated based on the measured results using the formula: RTV=Vt/V0, wherein V0 is the tumor volume measured at the time of dosing in separate cages (i.e., Day 0) and Vt is the tumor volume at each measurement. The anti-tumor activity is evaluated by the following measures: 1) relative tumor proliferation rate T/C (%), which is calculated by the following formula: T/C (%)=(TRTV/CRTV)×100%, wherein TRTV: RTV of ae treatment group; CRTV: RTV of a negative control group; 2) inhibition rate of tumor volume growth GI %, which is calculated by the following formula: GI %=[1−(TVt−TV0)/(CVt−[…])]×100%, wherein TVt is the tumor volume at each measurement in the treatment group; TV0 is the tumor volume obtained at the time of dosing in separate cages in the treatment group; CVt is the tumor volume at each measurement in the control group; CV0 is the tumor volume obtained at the time of dosing in separate cages in the control group (specific data are shown in Table 4).

SHP2 enzyme = SHP2 enzyme (Homo sapiens (Human), UniProt Q06124); assay: Inhibitory activity against SHP2 enzyme (Caliper conversion rate); type: biochemical; conditions: read-out: SHP2 Enzyme Inhibition IC50 Value
Sequence of SHP2 enzyme (Q06124 whole entry): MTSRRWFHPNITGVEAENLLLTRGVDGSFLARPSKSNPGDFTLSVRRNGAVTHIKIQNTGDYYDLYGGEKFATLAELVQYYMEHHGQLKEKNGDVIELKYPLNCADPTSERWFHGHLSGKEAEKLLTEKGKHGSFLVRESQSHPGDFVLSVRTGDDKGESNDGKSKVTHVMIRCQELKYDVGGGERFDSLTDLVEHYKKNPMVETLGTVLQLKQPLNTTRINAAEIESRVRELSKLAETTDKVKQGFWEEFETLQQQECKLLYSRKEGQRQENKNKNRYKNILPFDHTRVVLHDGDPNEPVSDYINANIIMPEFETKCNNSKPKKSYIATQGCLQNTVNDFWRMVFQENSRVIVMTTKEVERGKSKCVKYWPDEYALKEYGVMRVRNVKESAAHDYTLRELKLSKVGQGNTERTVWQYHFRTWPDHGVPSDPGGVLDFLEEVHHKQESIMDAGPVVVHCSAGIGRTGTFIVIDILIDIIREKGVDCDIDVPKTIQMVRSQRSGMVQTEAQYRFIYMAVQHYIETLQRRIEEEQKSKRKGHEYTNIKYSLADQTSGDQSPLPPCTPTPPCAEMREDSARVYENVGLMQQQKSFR
Protocol: (1) Preparing 1×Reaction Buffer according to the BPS Biosciences' Instructions for Use of the SHP2 enzyme. (2) Preparing a compound concentration gradient: Test the test compound at 10 μM under 3× dilution for 10 concentrations, diluting to a 100% dimethyl sulfoxide solution at a 100× final concentration in a 384-well plate, and diluting the compound with Precision 4× for 10 concentrations. Transferring 250 nL of the compound at the 100× final concentration to a target plate OptiPlate-384F using a dispenser Echo 550. […] (3) Preparing the activation peptide solution at a 5× final concentration with the 1×Reaction Buffer, adding 5 μL of the solution to a reaction plate, respectively, and centrifuging at 1000 rpm for 1 min. (4) Preparing an enzyme solution at a 2.5× final concentration with the 1×Reaction Buffer, adding 10 μL of the solution to the reaction plate, respectively, centrifuging at 1000 rpm for 1 min, and incubating at room temperature for 60 min. (5) Preparing a substrate peptide solution at a 2.5× final concentration with the 1×Reaction Buffer, centrifuging at 1000 rpm for 1 min, and incubating at room temperature for 30 min. (6) Adding 30 μL of stop test solution to stop the reaction, centrifuging at 1000 rpm for […], and mixing well by shaking. (7) Reading the conversion rate with a Caliper EZ Reader. (7) Data analysis:
Wherein: Conversion %/_sample is the reading of a conversion rate of a sample; Conversion %_min: mean of negative control wells, which represents the reading of a conversion rate in absence of enzyme activity wells; Conversion %_max: mean of a ratio of positive control wells, which represents the reading of a conversion rate in absence of compound inhibition wells.

MV4-11 leukemia cells = assay: Inhibition of proliferation of MV4-11 leukemia cells (CellTiter-Glo, 72 h); type: cell-based; conditions: read-out: IC50 value, MV4-11 cell proliferation
Protocol: Specific experimental procedures: 1) At Day 0: Inoculating trypsin-digested cells in 96-well plate and suspending the plate in cell culture medium; measure cell density using an automatic cell counter, diluting the cells with the culture medium to appropriate density, adding 100 μl of cell suspension in the 96-well plate, and incubating a cell-free medium as a control well in a cell incubator with […] at 37° C. overnight; 2) Day 1: Treating test compounds of the cells using a drug for a total of 8 concentrations, and diluting at a 3× concentration, wherein 10 μM is a starting test concentration of the test compounds. […] IC50 values are obtained by a four-parameter regression using software attached to the plate reader (the specific results are shown in Table 2).

[2] = system: KYSE520 tumor cell xenograft; assay: Growth inhibition of xenograft in nude mice; type: in vivo; conditions: 30 mg/kg, orally, once daily, for 21 consecutive days
Text: as §1, §2

[3] = system: MV 4-11 tumor cell xenograft; assay: Growth inhibition of xenograft in nude mice; type: in vivo; conditions: 30 mg/kg, orally, once daily, for 21 consecutive days
Text: as §1, §2

Row | SMILES | T/C [1] | IC50 (SHP2 enzyme) | IC50 (MV4-11 leukemia cells; Homo sapiens, MV4-11, 72 h) | T/C [2] | T/C [3] | IC50 (MV4-11 leukemia cells; 72 h)
1 | Cc1nc(N2CCC3(CC2)CO[C@@H](C)[C@H]3N)n2ccnc2c1Sc1ccnc(N)c1Cl [Comparative Compound 3, reference compound] | 39% | 0.0068 µM | 0.043 µM | – | – | –
2 | CC1(N)CCN(c2cnc(-c3cccc(Cl)c3Cl)c(N)n2)CC1 [SHP099, reference compound] | – | – | – | 43% | 47% | 1.67 µM
3 | CC1(N)CCN(c2nc(N)c(-c3cccc(Cl)c3Cl)c3nccn23)CC1 [Example 27, 5-(4-amino-4-methylpiperidin-1-yl)-8-(2,3-dichlorophenyl) imidazole [1,2-c] pyrimidin-7-amine] | – | 0.287 µM | – | – | – | 2.55 µM
4 | CC1(N)CCN(c2ncc(-c3cccc(Cl)c3Cl)c3nccn23)CC1 [Comparative Compound 2, 1-(8-(2,3-dichlorophenyl)imidazo [1,2-c]pyrimidin-5-yl)-4-methylpiperidin-4-amine, reference compound] | – | 3.46 µM | > 10 µM | – | – | –
